The results in this text go back to the supplement of paper PMC10331698.

± gives the standard deviation of the averaged measurements.

Holding throughout (test): level (log10 ratio to DMSO vehicle control); higher = higher biomarker level / cell amount than vehicle control
Common to all, as to details: in DMSO

Compound in experiment [1]: OCC(F)(F)OC(F)(F)C(F)(F)OC(F)(F)CO [1H,1H,8H,8H-Perfluoro-3,6-dioxaoctane-1,8-diol]
As for the experimental part:
(§1)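 BioMAP Diversity Plus panel of 12 human primary cell co-culture systems (3C, 4H, LPS, SAg, BT, BF4T, BE3C, CASM3C, HDF3CGF, KF3CT, MyoF, Mphg). Compounds were added 1 h before stimulation and left for 24 h (MyoF 48 h; BT 72 h for soluble read-outs or 6 d for IgG). Biomarkers were read by ELISA, cytotoxicity by SRB, PBMC viability and proliferation by Alamar Blue. Each well value was divided by the mean of 8 DMSO control wells on the same plate and log10 transformed; duplicate blinded samples were tested at 4 concentrations.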

Compound in the next experiment: O=C(O)C(F)(F)C(F)(F)C(F)(F)F [Perfluorobutanoic acid]
As to the method: as §1

Compound in a further experiment: O=C(O)C(F)(F)C(F)(F)C(F)(F)C(F)(F)C(F)(F)C(F)(F)F [Perfluoroheptanoic acid]
As to the method: as §1

Compound in experiment [2]: C=CC(F)(F)C(F)(F)C(F)(F)C(F)(F)C(F)(F)C(F)(F)C(F)(F)C(F)(F)C=C [1,8-Divinylperfluorooctane]
As for the experimental part:
as §1

Compound in experiment [3]: CCN(CCO)S(=O)(=O)C(F)(F)C(F)(F)C(F)(F)C(F)(F)C(F)(F)C(F)(F)C(F)(F)C(F)(F)F [N-Ethyl-N-(2-hydroxyethyl)perfluorooctanesulfonamide]
As for the experimental part: as §1

Compound in experiment [4]: O=C(O)C(F)(F)C(F)(F)C(F)F [4H-Perfluorobutanoic acid]
As for the experimental part: as §1

Compound in experiment [5]: C=C(C)C(=O)OCCC(F)(F)C(F)(F)C(F)(F)C(F)(F)C(F)(C(F)(F)F)C(F)(F)F [(Perfluoro-5-methylhexyl)ethyl 2-methylprop-2-enoate]
As for the experimental part:
as §1

Consider BF4T:CD54/ICAM-1, for which the “level (log10)” value in experiment [1] (6700 nM) was -0.005 ± 0.0057; in experiment [1] (20000 nM), 0.008 ± 0.0028; in experiment [1] (60000 nM) it was -0.0005 ± 0.0035; with Perfluorobutanoic acid (6700 nM) it was 0.007 ± 0.0057; with Perfluorobutanoic acid (20000 nM), -0.002 ± 0.0071; with Perfluorobutanoic acid (60000 nM) it was -0.002 ± 0.018. In addition, the “level (log10)” value with Perfluoroheptanoic acid (6700 nM) is -0.022 ± 0.0071; with Perfluoroheptanoic acid (20000 nM), -0.011 ± 0.0085; with Perfluoroheptanoic acid (60000 nM), 0.004 ± 0.0071; in experiment [2] (6700 nM) it was -0.0115 ± 0.021; in experiment [2] (20000 nM), -0.0095 ± 0.022; in experiment [3] (6700 nM), 0.0495 ± 0.016. For the same test system, the “level (log10)” value in experiment [3] (20000 nM) is 0.032 ± 0.0042; in experiment [4] (6700 nM), 0.002 ± 0.0085; in experiment [4] (20000 nM), -0.0025 ± 0.032; in experiment [4] (60000 nM), 0.0075 ± 0.032; in experiment [5] (6700 nM), -0.0065 ± 0.015; in experiment [5] (20000 nM), -0.017 ± 0.0099.

With BF4T:CD90, the “level (log10)” value in experiment [1] (6700 nM) was -0.008 ± 0.027; in experiment [1] (20000 nM), -0.008 ± 0.011; in experiment [1] (60000 nM), -0.0015 ± 0.011; with Perfluorobutanoic acid (6700 nM) it was -0.001 ± 0.0028; with Perfluorobutanoic acid (20000 nM), -0.0055 ± 0.00071; with Perfluorobutanoic acid (60000 nM), -0.0075 ± 0.0078. Further, the “level (log10)” value with Perfluoroheptanoic acid (6700 nM) is -0.01 ± 0.0042; with Perfluoroheptanoic acid (20000 nM), -0.001 ± 0.0014; with Perfluoroheptanoic acid (60000 nM), -0.0005 ± 0.0021; in experiment [2] (6700 nM) it was 0.0025 ± 0.0064; in experiment [2] (20000 nM) it was -0.002 ± 0.0071; in experiment [3] (6700 nM), -0.013 ± 0.0099. The “level (log10)” value was -0.0145 ± 0.005 in experiment [3] (20000 nM); 0.0045 ± 0.0035 in experiment [4] (6700 nM); 0.0095 ± 0.011 in experiment [4] (20000 nM); 0.01 ± 0.028 in experiment [4] (60000 nM); 0.011 in experiment [5] (6700 nM); 0 ± 0.0085 in experiment [5] (20000 nM).

BF4T:CD106/VCAM-1: the “level (log10)” value is -0.0125 ± 0.015 in experiment [1] (6700 nM); -0.006 ± 0.027 in experiment [1] (20000 nM); 0.0245 ± 0.053 in experiment [1] (60000 nM); -0.0185 ± 0.029 with Perfluorobutanoic acid (6700 nM); 0.0035 ± 0.028 with Perfluorobutanoic acid (20000 nM); 0.028 ± 0.072 in the experiment with Perfluorobutanoic acid (60000 nM). Also, the “level (log10)” value with Perfluoroheptanoic acid (6700 nM) is -0.0015 ± 0.029; in the experiment with Perfluoroheptanoic acid (20000 nM), 0.0115 ± 0.015; with Perfluoroheptanoic acid (60000 nM), 0.029 ± 0.0099; in experiment [2] (6700 nM) it was 0.0015 ± 0.016; in experiment [2] (20000 nM), 0.0065 ± 0.018; in experiment [3] (6700 nM), -0.039 ± 0.0085. For the same test system, the “level (log10)” value in experiment [3] (20000 nM) is -0.0615 ± 0.0092; in experiment [4] (6700 nM), 0.0145 ± 0.033; in experiment [4] (20000 nM), -0.0365 ± 0.054; in experiment [4] (60000 nM), 0.028 ± 0.078; in experiment [5] (6700 nM), -0.012 ± 0.02; in experiment [5] (20000 nM) it was 0.0325 ± 0.036.

As to BF4T:CXCL8/IL-8, the “level (log10)” value in experiment [1] (6700 nM) was 0.0225 ± 0.029; in experiment [1] (20000 nM), -0.0005 ± 0.029; in experiment [1] (60000 nM), 0 ± 0.023; in the experiment with Perfluorobutanoic acid (6700 nM), 0.0005 ± 0.012; with Perfluorobutanoic acid (20000 nM), 0.004 ± 0.0014; in the experiment with Perfluorobutanoic acid (60000 nM), 0.0095 ± 0.033. The “level (log10)” value is 0.017 ± 0.028 in the experiment with Perfluoroheptanoic acid (6700 nM); 0.0155 ± 0.013 in the experiment with Perfluoroheptanoic acid (20000 nM); 0.0145 ± 0.036 in the experiment with Perfluoroheptanoic acid (60000 nM); 0.009 ± 0.03 in experiment [2] (6700 nM); 0.0155 ± 0.013 in experiment [2] (20000 nM); -0.015 ± 0.014 in experiment [3] (6700 nM). The “level (log10)” value in experiment [3] (20000 nM) is -0.004 ± 0.0014; in experiment [4] (6700 nM) it was 0.0385 ± 0.0078; in experiment [4] (20000 nM), 0.046 ± 0.024; in experiment [4] (60000 nM) it was 0.0445 ± 0.04; in experiment [5] (6700 nM) it was 0.067 ± 0.037; in experiment [5] (20000 nM) it was 0.035 ± 0.027.

With BF4T:IL-1alpha, the “level (log10)” value was -0.004 ± 0.0042 in experiment [1] (6700 nM); -0.01 ± 0.0042 in experiment [1] (20000 nM); 0.012 ± 0.0028 in experiment [1] (60000 nM); -0.0025 ± 0.029 with Perfluorobutanoic acid (6700 nM); 0.0085 ± 0.0064 with Perfluorobutanoic acid (20000 nM); 0.013 ± 0.014 with Perfluorobutanoic acid (60000 nM). The “level (log10)” value with Perfluoroheptanoic acid (6700 nM) is -0.0085 ± 0.023; in the experiment with Perfluoroheptanoic acid (20000 nM), -0.0015 ± 0.005; in the experiment with Perfluoroheptanoic acid (60000 nM) it was 0.013 ± 0.0099; in experiment [2] (6700 nM) it was -0.0175 ± 0.0021; in experiment [2] (20000 nM), 0.01 ± 0.025; in experiment [3] (6700 nM), 0.008 ± 0.016. The “level (log10)” value was -0.0175 ± 0.015 in experiment [3] (20000 nM); -0.02 ± 0.0014 in experiment [4] (6700 nM); -0.019 ± 0.014 in experiment [4] (20000 nM); 0.0085 ± 0.012 in experiment [4] (60000 nM); -0.0155 ± 0.021 in experiment [5] (6700 nM); -0.014 ± 0.03 in experiment [5] (20000 nM).

Turning to BF4T:Keratin 8/18, the “level (log10)” value in experiment [1] (6700 nM) is 0.004 ± 0.0085; in experiment [1] (20000 nM), -0.0075 ± 0.018; in experiment [1] (60000 nM), 0.0205 ± 0.00071; in the experiment with Perfluorobutanoic acid (6700 nM), -0.0015 ± 0.0092; with Perfluorobutanoic acid (20000 nM) it was -0.011 ± 0.011; with Perfluorobutanoic acid (60000 nM), 0.0075 ± 0.018. The “level (log10)” value with Perfluoroheptanoic acid (6700 nM) is -0.0285 ± 0.0092; with Perfluoroheptanoic acid (20000 nM) it was -0.018 ± 0.0057; with Perfluoroheptanoic acid (60000 nM) it was 0.0045 ± 0.026; in experiment [2] (6700 nM) it was 0.023 ± 0.033; in experiment [2] (20000 nM) it was -0.003 ± 0.033; in experiment [3] (6700 nM) it was -0.002 ± 0.0014. Moreover, the “level (log10)” value in experiment [3] (20000 nM) was -0.0005 ± 0.0021; in experiment [4] (6700 nM) it was -0.027 ± 0.027; in experiment [4] (20000 nM), -0.0025 ± 0.013; in experiment [4] (60000 nM) it was 0.0035 ± 0.021; in experiment [5] (6700 nM), -0.024; in experiment [5] (20000 nM), -0.0115 ± 0.0078.

Consider BF4T:MMP-1, for which the “level (log10)” value is 0.0115 ± 0.022 in experiment [1] (6700 nM); 0.013 ± 0.028 in experiment [1] (20000 nM); 0.0135 ± 0.026 in experiment [1] (60000 nM); 0.0045 ± 0.022 in the experiment with Perfluorobutanoic acid (6700 nM); -0.01 ± 0.017 with Perfluorobutanoic acid (20000 nM); 0.0075 ± 0.015 with Perfluorobutanoic acid (60000 nM). In addition, the “level (log10)” value in the experiment with Perfluoroheptanoic acid (6700 nM) was -0.0005 ± 0.028; with Perfluoroheptanoic acid (20000 nM), 0.001 ± 0.03; with Perfluoroheptanoic acid (60000 nM) it was 0.039 ± 0.051; in experiment [2] (6700 nM), -0.0045 ± 0.005; in experiment [2] (20000 nM), 0.0135 ± 0.035; in experiment [3] (6700 nM), 0.015. The “level (log10)” value in experiment [3] (20000 nM) is 0.0095 ± 0.0078; in experiment [4] (6700 nM), -0.0075 ± 0.019; in experiment [4] (20000 nM), 0 ± 0.034; in experiment [4] (60000 nM), 0.006 ± 0.038; in experiment [5] (6700 nM), -0.0205 ± 0.0021; in experiment [5] (20000 nM), -0.0095 ± 0.0021.

Regarding BF4T:MMP-3, the “level (log10)” value in experiment [1] (6700 nM) was -0.01 ± 0.045; in experiment [1] (20000 nM) it was -0.0285 ± 0.057; in experiment [1] (60000 nM), -0.0095 ± 0.037; with Perfluorobutanoic acid (6700 nM), 0.0005 ± 0.035; with Perfluorobutanoic acid (20000 nM), 0.0045 ± 0.015; in the experiment with Perfluorobutanoic acid (60000 nM) it was 0.006 ± 0.033. For the same test system, the “level (log10)” value was -0.027 ± 0.023 in the experiment with Perfluoroheptanoic acid (6700 nM); -0.011 with Perfluoroheptanoic acid (20000 nM); 0.046 ± 0.048 with Perfluoroheptanoic acid (60000 nM); 0.021 ± 0.016 in experiment [2] (6700 nM); 0.0005 ± 0.005 in experiment [2] (20000 nM); -0.0145 ± 0.025 in experiment [3] (6700 nM). In addition, the “level (log10)” value in experiment [3] (20000 nM) is 0.0505 ± 0.023; in experiment [4] (6700 nM), -0.0025 ± 0.012; in experiment [4] (20000 nM) it was -0.014 ± 0.02; in experiment [4] (60000 nM) it was -0.007 ± 0.023; in experiment [5] (6700 nM), -0.0975 ± 0.022; in experiment [5] (20000 nM), -0.057 ± 0.041.
